Assays:
Format in all cases: cell-based
[1] = test system: release of TNFα from whole blood stimulated with LPS; assay: In Vitro Human Whole Blood: inhibition of TNFα release from whole blood stimulated with LPS; details: LPS 30 μg/mL, 18 hr, read-out: TNFα pIC50 (converted)
Protocol: In Vitro Human Whole Blood
Venous blood from human donors was collected and anti-coagulated with sodium heparin and transferred to a sterile polystyrene round bottomed plate (Corning) at 190 μL per well.
Control wells received 1 μL DMSO only and the final DMSO concentration in all wells was 0.5%.
10 μL was added to each well to give a final LPS concentration of 30 μg/mL. Unstimulated controls received PBS only at 10 μL/well. The samples were, again, gently mixed, and the plates incubated overnight for 18 hr. Following incubation, the blood was centrifuged at 700×g for 5 min, and the plasma removed and transferred to freeze at −20° C. before assay for TNFα release.
TNFα protein levels were determined using an AlphaLISA hTNFa kit (Perkin Elmer) according to the manufacturer's instructions. Briefly, the samples were allowed to return to room temperature and centrifuged at 1500×g for 5 min. Samples were diluted 1/5 (5 μL sample in 20 μL AlphaLISA buffer). At the same time, a standard curve of TNFα was prepared by serial 1/3 dilutions from a stock solution (5000-2 pg/mL). 5 μL sample/standard curve were transferred to a 384-well Optiplate™, and to this was added 20 μL anti-humanTNFa acceptor beads/biotinylated antibody mix. The plate was incubated at room temperature for 60 min. After this incubation, 25 μL streptavidin donor beads were added, and the plate was incubated for a further 60 min in the dark at room temperature. […] TNFα in the samples was determined by extrapolation from the standard curve and expressed as pg/mL.
Percent inhibition was plotted against concentration, and a curve graphed using a 4-parameter curve fit (Xlfit 4.1) to determine the pIC50.

[2] = test system: tyrosine aminotransferase (TAT) mRNA expression in human hepatocytes; assay: Tyrosine Aminotransferase (TAT) mRNA Expression In Vitro Assay in human primary hepatocytes; details: 18 hr, fold change vs DMSO control
Protocol: Tyrosine Aminotransferase (“TAT”) mRNA Expression In Vitro Assay
The impact of test compounds on hyperglycemic events were assessed by looking at changes in mRNA expression of the gene encoding tyrosine aminotransferase (TAT), which is under direct regulation of the glucocorticoid receptor in human hepatocytes.
Human cryopreserved primary hepatocytes (BioreclamationIVT, M00995-P lot EPB) were plated to 24-well collagen I-coated plates (Becton Dickinson, 354408). Cells were allowed to attach for 4 hr before being challenged with test compounds overnight (18 hr). Cells were harvested and total RNA isolated using RNeasy Plus Mini Kit (Qiagen, 74136) followed by cDNA synthesis using High Capacity cDNA reverse transcription kit (Applied Biosystems, 4368813). Real-time RT PCR was performed on an Applied Biosystems 7500 PCR cycler, using Taqman primers for TAT (Life technologies, Hs00356930_m1) and the reference gene hypoxanthine phosphoribosyltransferase 1 (Life technologies, Hs99999909_m1).
Human cryopreserved primary hepatocytes were transferred in to pre-warmed (37° C.) plating medium (BioreclamationIVT, Z990003) and diluted to 0.7×10^6 viable cells/mL. 500 µL of the cell suspension was plated to each well of a collagen I coated 24-well plate and cells were allowed to sediment and attach at 37° C. for 4 hr. After incubation, the media was gently discarded and exchanged for insulin, glucose, glutamine, pyruvate free media (BioreclamationIVT, S00304), containing compounds of interest, prednisolone at 1 μM, dissolved in DMSO (final DMSO concentration 0.01%), or DMSO alone as control. The plates were then incubated at 37° C. for an additional 18 hr. Media was discarded, and total RNA isolation (Qiagen) and cDNA synthesis (Applied Biosystems) performed according to the manufactures protocol. Real-time RT PCR was carried out using TaqMan reagents (Life technologies) on the 7500 PCR cycler, and Ct-values for TAT gene expression was normalised to the control gene and expressed as fold change compared to DMSO control using the 2^−ΔΔCt method.

[3] = biological target: T1, human glucocorticoid receptor (GR) (Homo sapiens (Human), UniProt P04150); assay: GRE Agonist Assay (ChagoK1 18:7:2 s4/GRE MMTV-GRE-LacZ reporter cell line); details: for Emax at 1 µM: ChaGo-K-1, relative to full agonist effect of dexamethasone, read-out: TA agonist Observed max Effect at 1 μM (%); for TA agonist pEC50: transactivation in agonist mode, ChagoK1 GRE-LacZ reporter cells, 24 hours
Excerpt: GRE Agonist Assay A reporter cell line (ChagoK1 18:7:2 s4/GRE) was established by stable transfection of the human bronchogenic carcinoma cell line, ChaGo K1 (ATCC: HTB 168) with a MMTV-GRE-LacZ reporter construct. The generated cell line allows for identification of compounds showing agonist activity at the human glucocorticoid receptor (GR) via induction of LacZ gene expression. Ligand-activated GR binds to the Glucocorticoid Response Element (GRE) in the promoter of the LacZ gene and transcription is initiated. The resulting beta-galactosidase activity is measured through a colour reaction (change in absorbance). Cryo-preserved ChagoK1 18:7:2 s4/GRE cells were suspended in RPMI medium with 10% FBS, 1% NEAA and 1% sodium pyruvate, and seeded as 50000 cells/200 ul/well in 96-well plates and cultured at 37° C. with 5% CO2 and 95% humidity for 24 hours. 1 μl compound was added at different concentrations to the cells and incubated for another 24 hours. […] The reaction was then terminated by addition of 100 μl stop solution (300 mM glycine, 15 mM EDTA, pH 11.3, adjusted with NaOH). […]) Where A=min Y, B=max Y, C=log EC50 and D=Slope factor

[4] = biological target: T1, human glucocorticoid receptor (GR); assay: GRE Antagonist Assay (ChagoK1 18:7:2 s4/GRE reporter cells pre-stimulated with dexamethasone); details: for Emax at 1 µM: ChaGo-K-1, relative to full antagonist effect of Mifepristone (RU486), read-out: TA antagonist Observed max Effect at 1 μM (%); for TA antagonist pIC50: transactivation in antagonist mode, pre-stimulated with dexamethasone 70 nM
Excerpt: GRE Antagonist Assay A reporter cell line (ChagoK1 18:7:2 s4/GRE) was established by stable transfection of the human bronchogenic carcinoma celline, ChaGo K1 (ATCC: HTB 168) with a MMTV-GRE-LacZ reporter construct. The generated cell line allows for identification of compounds showing antagonist activity at the human glucocorticoid receptor (GR) via reduction of LacZ gene expression. Dexamethasone-activated GR binds to the Glucocorticoid Response Element (GRE) in the promoter of the LacZ gene and transcription is initiated. Antagonistic properties of compounds are assessed as beta-galactosidase intensity reduction from pre-stimulation with dexamethasone through a colour reaction (change in absorbance). Cryo-preserved ChagoK1 18:7:2 s4/GRE cells were suspended in RPMI medium with 10% FBS, 1% NEAA and 1% sodium pyruvate, and seeded as 50000 cells/200 ul/well in 96-well plates and cultured at 37° C. with 5% CO2 and 95% humidity for 24 hr. […] The reaction was then terminated by addition of 100 μl stop solution (300 mM glycine, 15 mM EDTA, pH 11.3, adjusted with NaOH). The plates were measured at 420 nm for absorbance in a SpectraMax reader (Molecular Device). […]) Where A=min Y, B=max Y, C=log IC50 and D=Slope factor

T1 sequence (P04150 whole entry): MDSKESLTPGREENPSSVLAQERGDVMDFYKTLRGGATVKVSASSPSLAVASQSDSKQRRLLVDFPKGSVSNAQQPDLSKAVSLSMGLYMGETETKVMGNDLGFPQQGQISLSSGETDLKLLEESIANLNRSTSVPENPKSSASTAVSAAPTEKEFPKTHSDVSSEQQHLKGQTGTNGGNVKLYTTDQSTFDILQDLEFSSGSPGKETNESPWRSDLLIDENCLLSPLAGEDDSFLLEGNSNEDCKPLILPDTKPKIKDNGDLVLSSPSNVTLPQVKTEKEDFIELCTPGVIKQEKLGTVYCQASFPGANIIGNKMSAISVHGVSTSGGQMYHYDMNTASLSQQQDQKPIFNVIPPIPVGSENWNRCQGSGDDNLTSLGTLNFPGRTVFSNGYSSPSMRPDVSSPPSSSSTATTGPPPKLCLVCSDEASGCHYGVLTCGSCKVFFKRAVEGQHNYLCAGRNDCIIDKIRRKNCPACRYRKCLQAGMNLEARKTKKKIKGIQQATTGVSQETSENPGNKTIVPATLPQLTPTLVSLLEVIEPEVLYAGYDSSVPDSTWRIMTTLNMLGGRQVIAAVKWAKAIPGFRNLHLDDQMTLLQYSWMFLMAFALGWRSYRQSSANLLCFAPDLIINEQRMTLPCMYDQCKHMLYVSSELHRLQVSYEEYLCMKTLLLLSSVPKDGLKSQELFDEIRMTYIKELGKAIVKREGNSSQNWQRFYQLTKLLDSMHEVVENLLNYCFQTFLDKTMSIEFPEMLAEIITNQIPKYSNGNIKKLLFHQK

Compound | IC50 [1] [nM] | Emax at 1 µM [3] [%] | TA agonist pEC50 [3] | Emax at 1 µM [4] [%] | TA antagonist pIC50 [4] | Fold Change Tyrosine Aminotransferase Gene Expression Relative to Control (1 μM) [2]
C[C@]12C=CC(=O)C=C1CC[C@@H]1[C@@H]2[C@@H](O)C[C@@]2(C)[C@H]1CC[C@]2(O)C(=O)CO [Prednisolone, prednisolone, reference compound] | 251 | – | – | – | – | 2.8 (1.3-5.3, n = 10)
CC(C)[C@H](NC(=O)C(F)(F)F)[C@H](Oc1ccc2c(cnn2-c2ccc(=O)n(C)c2)c1)c1cccc(Cl)c1 [Example 6, N-[(1R,2S)-1-(3-chlorophenyl)-3-methyl-1-{[1-(1-methyl-6-oxo-1,6-dihydropyridin-3-yl)-1H-indazol-5-yl]oxy}butan-2-yl]-2,2,2-trifluoroacetamide] | 398 | 24 | 8.6 | 67 | 7.3 | 0.9 (n = 1)
CC(C)[C@H](NC(=O)C(C)(F)F)[C@H](Oc1ccc2c(cnn2-c2ccc(=O)n(C)c2)c1)c1ccccc1 [Example 1, 2,2-difluoro-N-[(1R,2S)-3-methyl-1-{[1-(1-methyl-6-oxo-1,6-dihydropyridin-3-yl)-1H-indazol-5-yl]oxy}-1-phenylbutan-2-yl]propanamide] | 631 | 36 | 8.0 | 56 | 6.8 | 1.0 (0.8-1.4, n = 8)

More lines, main results first:

IC50 [1] [nM] | Emax at 1 µM [3] [%] | TA agonist pEC50 [3] | Emax at 1 µM [4] [%] | TA antagonist pIC50 [4] | Compound | Fold Change Tyrosine Aminotransferase Gene Expression Relative to Control (1 μM) [2]
100 | 44 | 8.6 | 53 | 7.6 | CC(C)[C@H](NC(=O)C(C)(F)F)[C@H](Oc1ccc2c(cnn2-c2ccc(=O)n(C)c2)c1)c1cc(F)cc(F)c1 [Example 3, N-[(1R,2S)-1-(3,5-difluorophenyl)-3-methyl-1-{[1-(1-methyl-6-oxo-1,6-dihydropyridin-3-yl)-1H-indazol-5-yl]oxy}butan-2-yl]-2,2-difluoropropanamide] | 1.5 (1.4-1.55, n = 2)
– | 20 | 7.7 | 65 | 6.9 | CC(C)[C@H](NC(=O)C(F)(F)F)[C@H](Oc1ccc2c(cnn2-c2ccc(=O)n(C)c2)c1)c1cc(Cl)cc(Cl)c1 [Example 14, N-[(1R,2S)-1-(3,5-dichlorophenyl)-3-methyl-1-{[1-(1-methyl-6-oxo-1,6-dihydropyridin-3-yl)-1H-indazol-5-yl]oxy}butan-2-yl]-2,2,2-trifluoroacetamide] | –
– | 38 | 8.5 | 58 | 7.6 | CC(C)[C@H](NC(=O)C(C)(F)F)[C@H](Oc1ccc2c(cnn2-c2ccc(=O)n(C)c2)c1)c1cc(F)cc(Cl)c1 [Example 19, N-[(1R,2S)-1-(3-chloro-5-fluorophenyl)-3-methyl-1-{[1-(1-methyl-6-oxo-1,6-dihydropyridin-3-yl)-1H-indazol-5-yl]oxy}butan-2-yl]-2,2-difluoropropanamide] | –
– | 36 | 7.7 | 56 | 6.8 | CC(C)[C@H](NC(=O)C(C)(F)F)[C@H](Oc1ccc2c(cnn2-c2ccc(=O)n(C)c2)c1)c1cc(Cl)cc(Cl)c1 [Example 8, N-[(1R,2S)-1-(3,5-dichlorophenyl)-3-methyl-1-{[1-(1-methyl-6-oxo-1,6-dihydropyridin-3-yl)-1H-indazol-5-yl]oxy}butan-2-yl]-2,2-difluoropropanamide] | –

Source: US10196374B2 (AstraZeneca AB, priority 2014, dated 2019)
